Patent publication US7087757B2, “Phenyl-substituted imidazopyridines” (Ortho-McNeil Pharmaceutical, Inc., priority 2000, dated 2006)

Target: T1, human histamine H3 receptor (Homo sapiens, UniProt Q9Y5N1)
T1 construct: One microgram supercoiled H3 receptor cDNA was added to the cells and mixed; expressed in transfected cells; membranes prepared from cell pellets
Assay: [3H]-N-methylhistamine binding
Conditions: membranes of histamine H3 receptor-expressing SK-N-MC cells; 0.8 nM [3H]-N-methylhistamine; 45 minutes at 25° C.; Ki calculated with KD of 800 pM
Procedure: Screening using the human receptor is particularly important for the identification of new therapies for the treatment of human disease.
A 10 cm tissue culture dish with a confluent monolayer of SK-N-MC cells was split two days prior to transfection. Using sterile technique the media was removed and the cells were detached from the dish by the addition of trypsin. One fifth of the cells were then placed onto a new 10 cm dish. Cells were grown in a 37° C. incubator with 5% CO2 in Minimal Essential Media Eagle with 10% Fetal Bovine Serum. After two days cells were approximately 80% confluent. These were removed from the dish with trypsin and pelleted in a clinical centrifuge. […] One microgram supercoiled H3 receptor cDNA was added to the cells and mixed. The voltage for the electroporation was set at 0.25 kV, the capacitance is set at 960 μF.
After electroporation the cells were diluted into 10 mL complete media and plated onto four 10 cm dishes. Due to the variability in the efficiency of electroporation, four different concentrations of cells were plated. The ratios used were: 1:20, 1:10, and 1:5, with the remainder of the cells being added to the fourth dish. The cells were allowed to recover for 24 hours before adding the selection media (complete media with 600 μg/ml G418). After 10 days dishes were analyzed for surviving colonies of cells. Dishes with well-isolated colonies were used. Cells from individual colonies were isolated and tested. SK-N-MC cells were used because they give efficient coupling for inhibition of adenylate cyclase. The clones that gave the most robust inhibition of adenylate cyclase in response to histamine were used for further study.
Cell pellets from histamine H3 receptor-expressing SK-N-MC cells were homogenized in 20 mM Tris HCl/0.5 mM EDTA. Supernatants from a 800 g spin were collected, reccentrifuged at 30,000 g for 30 minutes. Pellets were rehomogenized in 50 mM Tris/5 mM EDTA (pH 7.4). Membranes were incubated with 0.8 nM [^3H]-N-methylhistamine plus/minus test compounds for 45 minutes at 25° C. and harvested by rapid filtration over GF/C glass fiber filters (pretreated with 0.3% polyethylenimine) followed by four washes with ice cold buffer. Filters were dried, added to 4 mL scintillation cocktail and then counted on a liquid scintillation counter.

T1 sequence (Q9Y5N1 whole entry): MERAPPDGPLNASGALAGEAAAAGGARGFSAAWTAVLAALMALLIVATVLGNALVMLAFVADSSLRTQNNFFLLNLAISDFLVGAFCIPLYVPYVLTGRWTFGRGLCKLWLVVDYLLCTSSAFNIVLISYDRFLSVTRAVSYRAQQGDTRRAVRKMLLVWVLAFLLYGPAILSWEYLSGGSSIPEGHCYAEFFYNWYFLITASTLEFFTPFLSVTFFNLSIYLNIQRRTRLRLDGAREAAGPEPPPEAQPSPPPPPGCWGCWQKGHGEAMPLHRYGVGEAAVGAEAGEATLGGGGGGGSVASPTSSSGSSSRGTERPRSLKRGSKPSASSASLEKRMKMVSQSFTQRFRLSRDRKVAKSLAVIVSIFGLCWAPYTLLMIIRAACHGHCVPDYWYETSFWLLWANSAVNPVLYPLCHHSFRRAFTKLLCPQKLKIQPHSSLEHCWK

Ki [nM]	SMILES
158	Cc1cccn2cc(-c3ccc(NC(=O)CCN4CCCCC4)cc3)nc12 [Example 28, 2-[4-[3-(Piperidinyl)]propanamidophenyl]-8-methylimidazo[1,2-a]pyridine]
1	Cc1ccn2cc(-c3ccc(OCCCN4CCCCC4)cc3C)nc2c1 [Example 22, 2-(4-Piperidinopropoxy-2-methylphenyl)-7-methylimidazo[1,2-a]pyridine]
611	CCN(CCOc1ccc(-c2cn3ccccc3n2)cc1)c1ccccc1 [Example 10, 2-(4-(N-Ethyl)anilinoethoxyphenyl)imidazo[1,2-a]pyridine]
8	Cc1cccn2cc(-c3ccc(NCCN4CCCCC4)cc3)nc12 [Example 31, [4-(8-Methyl-imidazo[1,2-a]pyridin-2-yl)-phenyl]-(2-piperidin-1-yl-ethyl)-amine]
32	Cc1cc(-c2cn3cccc(C)c3n2)ccc1OCCCN1CCCCC1 [Example 9, 2-(4-Piperidinopropoxy-3-methylphenyl)-8-methylimidazo[1,2-a]pyridine]
89	Cc1cccn2cc(-c3ccc(C(=O)OCCN(C)C)cc3)nc12 [Example 2, 4-(8-Methyl-imidazo[1,2-a]pyridin-2-yl)-benzoic acid 2-dimethylamino-ethyl ester]
27	CC1CCn2cc(-c3ccc(CCCCN4CCCCC4)cc3)nc2C1 (centres unmarked) [Example 41, 7-Methyl-2-[4-(4-piperidin-1-yl-butyl)-phenyl]-5,6,7,8-tetrahydro-imidazo[1,2-a]pyridine]
10	Cc1ccn2cc(-c3ccc(CCCCN4CCCC4)cc3)nc2c1 [Example 37, 2-[4-[4-Pyrrolidinobutyl]phenyl]-7-methylimidazo[1,2-a]pyridine]
1500	Cc1ccn2cc(-c3ccc(OCCCNCc4ccc(F)cc4)cc3)nc2c1 [Example 25, 2-(4-(4-Fluorobenzyl)aminopropoxyphenyl)-7-methylimidazo[1,2-a]pyridine]
150	Cc1cccn2cc(-c3ccc(OCCCNC4CCN(Cc5ccccc5)CC4)cc3)nc12 [Example 44, 2-[4-[N-[(1-Benzylpiperidino)amino]propoxy]phenyl]-8-methylimidazo[1,2-a]pyridine]
15	Cc1ccn2cc(-c3ccc(OCCCN4CCCCCC4)cc3F)nc2c1 [Example 21]
70	Cc1cccn2cc(-c3ccc(NC(=O)CN4CCCC4)cc3)nc12 [Example 4, N-[4-(8-Methyl-imidazo[1,2-a]pyridin-2-yl)-phenyl]-2-pyrrolidin-1-yl-acetamide]
50	Cc1ccn2cc(-c3ccc(C#CCCN4CCCCCC4)cc3)nc2c1 [Example 35]
630	Cc1cccn2cc(-c3ccc(NS(=O)(=O)CCCN4CCCCC4)cc3)nc12 [Example 53, 3-Piperidin-1-yl-propane-1-sulfonic acid [4-(8-methyl-imidazo[1,2-a]pyridin-2-yl)-phenyl]]
28	Cc1ccn2cc(-c3cccc(OCCCN4CCCCC4)c3)nc2c1 [Example 15, 7-Methyl-2-[3-(3-piperidin-1-yl-propoxy)-phenyl]-imidazo[1,2-a]pyridine]
29	Cc1ccn2cc(-c3ccc(CCCCN4CCCCC4)cc3)nc2c1 [Example 38, 7-Methyl-2-[4-(4-piperdin-1-yl-butyl)-phenyl]imidazo[1,2-a]pyridine]
9	CCN(CC)CCCNc1ccc(-c2cn3cccc(C)c3n2)cc1 [Example 29, N,N-Diethyl-N′-[4-(8-methyl-imidazo[1,2-a]pyridin-2-yl)-phenyl]-propane-1,3-diamine]
0.5	Cc1ccn2cc(-c3ccc(OCCCN4CCCCCC4)cc3C)nc2c1 [Example 24]
500	Cc1cccn2cc(-c3ccc(OCCCN4CCN(CCc5ccccc5)CC4)cc3)nc12 [Example 45, 2-[4-[3-(4-Phenethylpiperazino)propoxy]phenyl]-8-methylimidazo[1,2-a]pyridine]
159	COc1cc(-c2cn3ccc(C)cc3n2)ccc1OCCCN1CCCCC1 [Example 26, 2-(4-Piperidinopropoxy-3-methoxyphenyl)-7-methylimidazo[1,2-a]pyridine]

Ki [nM]	SMILES
3	Cc1ccn2cc(-c3ccc(C#CCCN4CCCC4)cc3)nc2c1 [Example 34, 2-[4-[4-Pyrrolidinobut-1-ynyl]phenyl]-7-methylimidazo[1,2-a]pyridine]
2	Cc1ccn2cc(-c3ccc(OCCCN4CCCC4)cc3)nc2c1 [Example 18, 2-(4-Pyrrolidinopropoxyphenyl)-7-methylimidazo[1,2-a]pyridine]
21	Cc1cc(-c2cn3ccccc3n2)ccc1OCCCN1CCCCC1 [Example 12, 2-(4-Piperidinopropoxy-3-methylphenyl)imidazo[1,2-a]pyridine]
63	COc1cc(-c2cn3ccc(C)cc3n2)ccc1OCCCN1CCCC1 [Example 13, 2-[3-Methoxy-4-(3-pyrrolidin-1-yl-propoxy)-phenyl]-7-methyl-imidazo[1,2-a]pyridine]
25	Cc1cccn2cc(-c3ccc(OCCCN4CCOCC4)cc3)nc12 [Example 55, 2-(4-Morpholinopropoxyphenyl)-8-methylimidazo[1,2-a]pyridine]
55	CCN(CC)CCC(=O)Nc1ccc(-c2cn3cccc(C)c3n2)cc1 [Example 6, 3-Diethylamino-N-[4-(8-methyl-imidazo[1,2-a]pyridin-2-yl)-phenyl]-propionamide]
4	CCN(CC)CCNc1ccc(-c2cn3cccc(C)c3n2)cc1 [Example 7, N,N-Diethyl-N′-[4-(8-methyl-imidazo[1,2-a]pyridin-2-yl)-phenyl]-ethane-1,2-diamine]
1	Cc1cccn2cc(-c3ccc(OCCCN4CCCCC4)cc3)nc12 [Example 54, 2-(4-Piperidinopropoxyphenyl)-8-methylimidazo[1,2-a]pyridine]
5	c1ccn2cc(-c3ccc(OCCCN4CCCCC4)cc3)nc2c1 [Example 52, 2-[4-(3-Piperidin-1-yl-propoxy)-phenyl]-imidazo[1,2-a]pyridine]
1000	Cc1cccn2cc(-c3ccc(OCCCNCc4ccccc4)cc3)nc12 [Example 43, 2-(4-Benzylaminopropoxyphenyl)-8-methylimidazo[1,2-a]pyridine]
14	Cc1ccn2cc(-c3ccc(OCCCN4CCC(N5CCCCC5)CC4)cc3C)nc2c1 [Example 23, 2-(4-(4-Piperidino)piperidinopropoxy-2-methylphenyl)-7-methylimidazo[1,2-a]pyridine]
1000	Cc1cccn2cc(-c3ccc(OCC(O)CN4CCN(CCc5ccccc5)CC4)cc3)nc12 (centres unmarked) [Example 50, 2-[4-[2-Hydroxy-3-(4-phenethylpiperazino)propoxy]phenyl]-8-methylimidazo[1,2-a]pyridi]
50	CCCN(CCC)CC(C)COc1ccc(-c2cn3cccc(C)c3n2)cc1 (centres unmarked) [Example 5, {2-Methyl-3-[4-(8-methyl-imidazo[1,2-a]pyridin-2-yl)-phenoxy]-propyl}-dipropyl-amine]
57	Cc1ccn2cc(-c3ccc(CCCCN4CCCCCC4)cc3)nc2c1 [Example 39, 2-[4-(4-Azepan-1-yl-butyl)-phenyl]-7-methyl-imidazo[1,2-a]pyridine]
7	Cc1cc(-c2cn3ccccc3n2)ccc1OCCC1CCCN1C (centres unmarked) [Example 11, 2-[4-[2-(1-Methyl)-2-pyrrolidino]ethoxy-3-methylphenyl]imidazo[1,2-a]pyridine]
3	CCN(CC)CCCNc1ccc(-c2cn3ccc(C)cc3n2)cc1 [Example 30, N,N-Diethyl-N′-[4-(7-methyl-imidazo[1,2-a]pyridin-2-yl)-phenyl]-propane-1,3-diamine]
1000	Cc1cccn2cc(-c3ccc(OCC(O)CNC(C)(C)C)cc3)nc12 (centres unmarked) [Example 49, 2-(4-(2-hydroxy-3-(1,1-Dimethylethyl)aminopropoxy)phenyl)-8-methylimidazo[1,2-a]pyridine]
3.2	Cc1cc(OCCCN2CCCCC2)ccc1-c1cn2c(n1)CC(C)CC2 (centres unmarked) [Example 17, 7-Methyl-2-[2-methyl-4-(3-piperidin-1-yl-propoxy)-phenyl]-5,6,7,8-tetrahydro-imidazo[1,2-a]pyridine]
1000	CCCNCC(O)COc1ccc(-c2cn3cccc(C)c3n2)cc1 (centres unmarked) [Example 46, 2-[4-(2-hydroxy-3-propylaminopropoxy)phenyl]-8-methylimidazo[1,2-a]pyridine]

SMILES	Ki [nM]
CCCCN(CCCC)CC(O)COc1ccc(-c2cn3cccc(C)c3n2)cc1 (centres unmarked) [Example 48, 2-(4-Dibutylamino(2-hydroxy)propoxyphenyl)-8-methylimidazo[1,2-a]pyridine]	1000
CCCN(CCC)CC(O)COc1ccc(-c2cn3cccc(C)c3n2)cc1 (centres unmarked) [Example 47, 2-(4-Dipropylamino(2-hydroxy)propoxyphenyl)-8-methylimidazo[1,2-a]pyridine]	500
